Experimental findings from ChEMBL document CHEMBL1144460, “Design, synthesis, and structural analysis of inhibitors of influenza neuraminidase containing a 2,3-disubstituted tetrahydrofuran-5-carboxylic acid core” (Bioorg Med Chem Lett, 2005) are described below.

Neuraminidase, sequence (P03474 whole entry): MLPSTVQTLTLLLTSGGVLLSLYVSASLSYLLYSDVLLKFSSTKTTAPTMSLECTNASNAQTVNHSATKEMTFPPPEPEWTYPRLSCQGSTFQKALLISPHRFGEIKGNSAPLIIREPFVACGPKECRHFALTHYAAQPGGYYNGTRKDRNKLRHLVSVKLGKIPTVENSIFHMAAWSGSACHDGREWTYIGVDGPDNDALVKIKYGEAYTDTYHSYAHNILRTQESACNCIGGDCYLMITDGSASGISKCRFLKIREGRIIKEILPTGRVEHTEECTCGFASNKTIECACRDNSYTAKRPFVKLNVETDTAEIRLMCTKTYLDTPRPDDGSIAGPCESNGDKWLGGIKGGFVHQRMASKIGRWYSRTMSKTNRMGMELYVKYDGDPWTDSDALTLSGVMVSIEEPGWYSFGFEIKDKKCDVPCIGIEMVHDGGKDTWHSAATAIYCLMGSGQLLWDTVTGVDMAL

This assay has as its target Neuraminidase (Influenza B virus (strain B/Lee/1940), UniProt P03474). Kind of assay: Inhibitory concentration of the compound was determined against neuraminidase B (B/Memphis/3/89) of Influenza virus.
With `CC(=O)N[C@@H](CC(C)C)[C@@H]1O[C@@H](C(=O)O)C[C@H]1c1c[nH]cn1`, the IC50 amounted to 1000 nM.

`COC(=O)[C@@H]1C[C@H](C(=O)O)O[C@H]1[C@H](CC(C)C)NC(C)=O`: the IC50 worked out at 960 nM.

With `COC(=O)[C@@H]1C[C@H](C(=O)O)N[C@H]1[C@H](CC(C)C)NC(C)=O`, it took 56 nM to reach half-maximal inhibition (IC50).

Usually IC50 stands for the concentration needed to halve the response being measured.
